This is an account of results in patent US20260139004A1, “PEPTIDE HAVING ACTIVITIES OF PROMOTING HAIR GROWTH AND INHIBITING HAIR LOSS, AND USES THEREOF” (CAREGEN CO., LTD., priority 2022, published 2026).

In test [1] the test system is human hair follicle dermal papilla cells (HHFDPCs). Nature of the test: Proliferation of human hair follicle dermal papilla cells (MTT). It is filed as cell-based. Conditions: peptide at 500 nM, 5 μM and 50 μM, 72 hours, absorbance 540 nm, FIG. 1. As to the method: The effect of the peptide prepared in Preparation Example 1 above on the proliferation of human hair follicle dermal papilla cells (HHFDPCs) was tested.
HHFDPCs were seeded in a 96-well cell culture plate at a density of 4×10^3 cells/well and cultured for 24 hours under mesenchymal stem cell complete media conditions. Then, the medium was replaced with serum-free mesenchymal stem cell medium and cultured for additional 24 hours. The cultured cell culture was treated with the peptide prepared in Preparation Example 1 above at 500 nM, 5 μM, and 50 μM, respectively, treated with 1 μM VEGF to serve as a positive control, and not treated with anything to serve as a negative control (con), and these cultures were cultured at 37° C. for additional 72 hours. Thereafter, 10 μL of MTT solution (5 mg/mL) was added thereto, and the mixture was incubated in a CO2 incubator at 37° C. for 4 hours, the medium was removed, and 100 μL of DMSO was added thereto and shaken for 10 minutes. Finally, the absorbance was measured at a wavelength of 540 nm using a spectrophotometer (Molecular Devices (SpectraMax iD3, CA, USA)).

For a further test, the system named is Akt. Nature of the test: Western blot of phospho-AKT in HHFDPCs. It is filed as cell-based, human. Conditions: peptide at 500 nM, 5 μM and 50 μM, 24 hours, FIG. 2. The protocol:
(§1) The effect of the peptide prepared in Preparation Example 1 above on the activation of proliferation-related signaling molecules in human hair follicle dermal papilla cells (HHFDPCs) was confirmed by Western blot method.
(§2) HHFDPCs were seeded in a 6-well cell culture plate at a density of 4×10^5 cells/well and cultured for 24 hours under mesenchymal stem cell complete media conditions. Then, the medium was replaced with serum-free mesenchymal stem cell medium and cultured for additional 24 hours. The cultured cell culture was treated with the peptide prepared in Preparation Example 1 above at 500 nM, 5 μM, and 50 μM, respectively, 1 μM of Minoxidil (MNX) and 1 μM of VEGF were treated to serve as a positive control, and not treated with anything to serve as a negative control (con), and the cultures treated with these materials were cultured at 37° C. for additional 24 hours. After washing each culture with PBS, the cells were lysed by treatment with lysis buffer to obtain a cell lysate. Equal amounts of protein samples were prepared by BCA quantification of cell lysates. The prepared protein samples were subjected to electrophoresis using 10% SDS-PAGE. […] The resultant was washed 3 times for 15 minutes each with 0.1% PBS-T (0.1% Tween-20 in PBS), treated with ECL solution (GE Healthcare, USA), and detected with a film.
(In general: A western blot detects proteins with antibodies after separation by electrophoresis.)

Test [2] concerns extracellular-regulated kinase (ERK). Put plainly: Western blot of phospho-ERK in HHFDPCs. It is filed as cell-based, human. Conditions: peptide at 500 nM, 5 μM and 50 μM, 24 hours, FIG. 2. As to the method:
as §1, §2

For a further test, the system named is beta-catenin. Put plainly: Western blot of nuclear beta-catenin in HHFDPCs. It is filed as cell-based, human. Conditions: peptide at 500 nM, 5 μM and 50 μM, 24 hours, nuclear protein Western blot, FIG. 3. As to the method:
The effect of the peptide prepared in Preparation Example 1 above on the activation of beta-catenin in human hair follicle dermal papilla cells (HHFDPCs) was confirmed by Western blot method.
HHFDPCs were seeded in a 6-well cell culture plate at a density of 4×10^5 cells/well and cultured for 24 hours under mesenchymal stem cell complete media conditions. Then, the medium was replaced with serum-free mesenchymal stem cell medium and cultured for additional 24 hours. The cultured cell culture was treated with the peptide prepared in Preparation Example 1 above at 500 nM, 5 μM, and 50 μM, respectively, and treated with 10 ng/mL of rhWnt-3a (recombinant human Wnt-3a protein, R&D systems (MN, USA) to serve as a positive control, and not treated with anything to serve as a negative control (con). The cultures treated with these materials were incubated at 37° C. for additional 24 hours. After washing each culture with PBS, nuclear proteins were isolated using a nuclear protein extraction kit (Thermo scientific, USA), and an equal amount of protein sample was prepared by BCA quantification. The prepared protein samples were subjected to electrophoresis using 10% SDS-PAGE. […] The resultant was washed 3 times for 15 minutes each with 0.1% PBS-T (0.1% Tween-20 in PBS), treated with ECL solution (GE Healthcare, USA), and detected with a film.

The next test concerns LEF-1. Nature of the test: RT-PCR of LEF-1 gene expression in HHFDPCs. It is filed as cell-based, human. Conditions: peptide at 500 nM, 5 μM and 50 μM, 24 hours, FIG. 4. As to the method: (§3) The effect of the peptide prepared in Preparation Example 1 above on the expression levels of lymphoid enhancer-binding factor 1 (LEF-1) and c-Myc, which are downstream genes of beta-catenin, in human hair follicle dermal papilla cells (HHFDPCs) was determined by the RT-PCR method.
(§4) HHFDPCs were seeded in a 6-well cell culture plate at a density of 4×10^5 cells/well and cultured for 24 hours under mesenchymal stem cell complete media conditions. Then, the medium was replaced with serum free mesenchymal stem cell medium and cultured for additional 24 hours. The cultured cell culture was treated with the peptide prepared in Preparation Example 1 above at 500 nM, 5 μM, and 50 μM, respectively, and treated with 10 ng/mL of rhWnt-3a (recombinant human Wnt-3a protein, R&D systems (MN, USA) to serve as a positive control, and not treated with anything to serve as a negative control (con), and each was cultured at 37° C. for additional 24 hours. After washing each culture with PBS, RNA was isolated therefrom by treatment with 300 μL of eaay blue (Intron, South Korea). The isolated RNA was quantified using Nano drop, and then subjected to cDNA synthesis using a cDNA synthesis kit (Enzynomics, South Korea). […] The PCR reaction product was electrophoresed on a 1.5% agarose gel, and the bands were detected using the Bio-Rad Gel Image System.

Another test deals with c-Myc. Nature of the test: RT-PCR of c-Myc gene expression in HHFDPCs. The test is classed as cell-based, human. Conditions: peptide at 500 nM, 5 μM and 50 μM, 24 hours, FIG. 4. As to the method:
as §3, §4

A further test relates to DKK-1. Put plainly: Western blot of DHT-induced DKK-1 in HHFDPCs. It is filed as cell-based, human. Conditions: peptide at 500 nM, 5 μM and 50 μM with 100 nM DHT, 24 hours, FIG. 5. The source says:
It is known that in hair follicles, dihydrotestosterone (DHT) promotes the expression of Dickkopf-1 (DKK-1), and DKK-1 induced by DHT inhibits the proliferation of keratinocytes in hair follicles and causes their apoptosis, thereby promoting hair loss (J of Invest Dermatolo. 2008, February, 128(2), pp. 262-269.). The effect of the peptide prepared in Preparation Example 1 above on the expression level of the hair loss-inducing protein DKK-1 in human hair follicle dermal papilla cells (HHFDPCs) was confirmed by Western blot method.
HHFDPCs were seeded in a 6-well cell culture plate at a density of 4×10^5 cells/well and cultured for 24 hours under mesenchymal stem cell complete media conditions. Then, the medium was replaced with serum-free mesenchymal stem cell medium and cultured for additional 24 hours. The cultured cell culture was treated with 500 nM, 5 μM, and 50 μM of the peptide prepared in Preparation Example 1 above, respectively. treated with 5 μM of finasteride to serve as a positive control, and not treated with anything to serve as a negative control group (con). […] Equal amounts of protein samples were prepared by BCA quantification of cell lysates. […] The resultant was washed 3 times for 15 minutes each with 0.1% PBS-T (0.1% Tween-20 in PBS), treated with ECL solution (GE Healthcare, USA), and detected with a film.

The test system of another test is Ha3-II. Nature of the test: RT-PCR of Ha3-II gene expression in HHORSCs. The test is classed as cell-based, human. Conditions: peptide at 500 nM, 5 μM and 50 μM, 24 hours, FIG. 6. The protocol: (§5) The effect of the peptide prepared in Preparation Example 1 above on the activation of human hair outer root sheath cells (HHORSCs) was confirmed by measuring the expression of cytokeratin proteins.
(§6) HHORSCs were seeded in a 96-well cell culture plate at a density of 4×10^3 cells/well and cultured for 24 hours under mesenchymal stem cell complete media conditions. Then, the medium was replaced with serum free mesenchymal stem cell medium and cultured for additional 24 hours. The cultured cell culture was treated with 500 nM, 5 μM, and 50 μM of the peptide prepared in Preparation Example 1 above, respectively, and treated with 100 nM of epidermal growth factor (EGF) as a positive control, and negative when not treated with anything to serve as a negative control (con), and these cultures were cultured at 37° C. for 24 hours. After washing each culture with PBS, RNA was isolated by treatment with 300 μL of eaay blue (Intron, South Korea). The isolated RNA was quantified using Nano drop, and then subjected to cDNA synthesis using a cDNA synthesis kit (Enzynomics, South Korea). Then, a PCR reaction was performed using the primers shown in Table 3 below and a PCR premix (Enzynomics, South Korea). The PCR reaction product was electrophoresed on a 1.5% agarose gel, and the bands were detected using the Bio-Rad Gel Image System.

The next test relates to Keratin 5. Put plainly: RT-PCR of Keratin 5 gene expression in HHORSCs. The test is classed as cell-based, human. Conditions: peptide at 500 nM, 5 μM and 50 μM, 24 hours, FIG. 6. As to the method:
as §5, §6

The next test has as its system Keratin 14. Nature of the test: RT-PCR of Keratin 14 gene expression in HHORSCs. It is filed as cell-based, human. Conditions: peptide at 500 nM, 5 μM and 50 μM, 24 hours, FIG. 6. The protocol: as §5, §6
The next test has as its system Keratin 19. Nature of the test: RT-PCR of Keratin 19 gene expression in HHORSCs. The test is classed as cell-based, human. Conditions: peptide at 500 nM, 5 μM and 50 μM, 24 hours, FIG. 6. The protocol:
as §5, §6

Consider “LKRYKHLV (Leu-Lys-Arg-Tyr-Lys-His-Leu-Val) [peptide of Preparation Example 1]”, for which, in test [1], the “proliferation of HHFDPC compared to the negative control (con)” value was “promoted”. Further, the “phosphorylation of Akt” value in the test on Akt is “increased”. In addition, the “phosphorylation of extracellular-regulated kinase (ERK)” value in test [2] is on record as “increased”. The “beta-catenin activation and movement to the nucleus” value with beta-catenin is on record as “increased”. In addition, the “gene expression of LEF-1” value in the test with LEF-1 was “increased”. Moreover, the “gene expression of c-Myc” value in the test with c-Myc is reported as “increased”. The “expression of DKK-1 induced by DHT treatment” value in the test on DKK-1 is “reduced in a concentration-dependent manner”. The “gene expression of Ha3-II” value in the test with Ha3-II is recorded as “increasing”. Further, in the test with Keratin 5, the “gene expression of Keratin 5” value is “increasing”. Also, in the test with Keratin 14, the “gene expression of Keratin 14” value is “increasing”. In the test with Keratin 19, the “gene expression of Keratin 19” value is on record as “increasing”.
